From patent publication US8569484B2, “Heterocyclic urea derivatives and methods of use thereof” (Astrazeneca AB, priority 2009, dated 2013)
Read-outs that look alike come from different tables or passages of the source.

Target: S. aureus GyrB ATPase (Staphylococcus aureus, UniProt P0A0K8)
Assay: S. aureus GyrB ATPase inhibition (ammonium molybdate/malachite green phosphate detection)
Assay type: biochemical
Details: read-out: Percent Inhibition (1 μM)
Description: S. aureus GyrB ATPase Inhibition Activity: Compounds may be tested for inhibition of S. aureus GyrB ATPase activity using an ammonium molybdate/malachite green-based phosphate detection assay (Lanzetta, P. A., L. J. Alvarez, P. S. Reinach, and O. A. Candia, 1979, 100: 95-97). Assays can be performed in multiwell plates in 30 μl reactions containing: 50 mM Hepes buffer pH 7.5, 75 mM ammonium acetate, 8.0 mM magnesium chloride, 0.5 mM ethylenediaminetetraacetic acid, 5% glycerol, 1.0 mM 1,4-Dithio-DL-threitol, 200 nM bovine serum albumin, 1.0 μg/ml sheared salmon sperm DNA, 250 pM E. coli GyrA, 250 pM S. aureus GyrB, 250 μM ATP, and compound in dimethylsulfoxide. Reactions can be quenched with 30 μl of ammonium molybdate/malachite green detection reagent containing 1.2 mM malachite green hydrochloride, 8.5 mM ammonium molybdate tetrahydrate, and 1 M hydrochloric acid. Plates can be read in an absorbance plate reader at 650 nm and percent inhibition values can be calculated using dimethylsulfoxide (2%)-containing reactions as 0% inhibition and EDTA-containing ([…]) reactions as 100% inhibition controls. An IC50 measurement of compound potency for each compound can be determined from reactions performed in the presence of 10 different compound concentrations.

[1] = 1 μM compound, S. aureus GyrB ATPase

Sequence of S. aureus GyrB ATPase (P0AES4 whole entry): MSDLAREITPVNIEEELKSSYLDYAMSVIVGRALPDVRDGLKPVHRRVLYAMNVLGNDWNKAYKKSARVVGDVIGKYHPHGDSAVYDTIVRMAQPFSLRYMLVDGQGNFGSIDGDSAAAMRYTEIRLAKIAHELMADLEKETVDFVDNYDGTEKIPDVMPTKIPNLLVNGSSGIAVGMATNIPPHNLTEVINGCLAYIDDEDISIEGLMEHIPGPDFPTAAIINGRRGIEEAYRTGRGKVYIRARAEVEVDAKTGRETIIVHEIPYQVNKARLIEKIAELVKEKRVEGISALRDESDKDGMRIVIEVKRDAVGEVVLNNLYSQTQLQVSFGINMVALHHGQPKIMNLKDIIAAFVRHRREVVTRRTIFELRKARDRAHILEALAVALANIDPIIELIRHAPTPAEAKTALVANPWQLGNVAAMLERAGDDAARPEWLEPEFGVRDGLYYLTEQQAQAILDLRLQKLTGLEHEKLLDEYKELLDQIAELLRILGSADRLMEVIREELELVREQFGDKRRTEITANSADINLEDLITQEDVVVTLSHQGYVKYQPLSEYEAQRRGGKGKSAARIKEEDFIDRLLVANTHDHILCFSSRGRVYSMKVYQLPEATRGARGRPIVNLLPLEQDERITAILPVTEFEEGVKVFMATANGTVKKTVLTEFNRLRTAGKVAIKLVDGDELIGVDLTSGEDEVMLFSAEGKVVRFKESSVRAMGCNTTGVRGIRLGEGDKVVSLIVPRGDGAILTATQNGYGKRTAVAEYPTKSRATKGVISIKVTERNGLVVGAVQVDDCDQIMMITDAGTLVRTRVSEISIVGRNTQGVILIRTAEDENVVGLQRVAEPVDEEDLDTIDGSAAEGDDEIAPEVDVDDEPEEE
Sequence of S. aureus GyrB ATPase (P0A0K8 whole entry): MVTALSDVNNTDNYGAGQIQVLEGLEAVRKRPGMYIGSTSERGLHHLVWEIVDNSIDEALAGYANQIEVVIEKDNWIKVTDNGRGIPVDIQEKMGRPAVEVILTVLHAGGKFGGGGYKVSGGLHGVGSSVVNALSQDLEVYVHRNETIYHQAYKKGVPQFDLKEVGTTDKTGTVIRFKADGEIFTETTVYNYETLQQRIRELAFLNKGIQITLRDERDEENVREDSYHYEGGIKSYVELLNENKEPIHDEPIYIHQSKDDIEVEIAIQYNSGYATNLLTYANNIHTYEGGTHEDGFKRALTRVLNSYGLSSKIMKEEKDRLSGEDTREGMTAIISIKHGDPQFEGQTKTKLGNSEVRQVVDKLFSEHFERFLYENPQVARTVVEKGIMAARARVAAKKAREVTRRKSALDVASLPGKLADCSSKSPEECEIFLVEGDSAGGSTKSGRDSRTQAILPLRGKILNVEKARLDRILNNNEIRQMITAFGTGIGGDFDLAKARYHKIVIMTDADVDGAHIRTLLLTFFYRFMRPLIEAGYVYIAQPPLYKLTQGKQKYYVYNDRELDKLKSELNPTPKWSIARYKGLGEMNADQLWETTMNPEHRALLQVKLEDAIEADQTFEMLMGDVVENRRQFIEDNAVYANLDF

CCNC(=O)Nc1cc(-c2nc(C(F)(F)F)cs2)c(-c2cnc3c(c2)c(=O)c(C(=O)O)cn3CC2CCN(C)CC2)cn1 [Example 1, 6-(6-(3-Ethylureido)-4-(4-(trifluoromethyl)thiazol-2-yl)pyridin-3-yl)-1-((1-methylpiperidin-4-yl)methyl)-4-oxo-1,4-dihydro-1,8-naphthyridine-3-carboxylic acid]
inhibition at 1 µM [1]: 107%

CCNC(=O)Nc1cc(-c2nc(C(F)(F)F)cs2)c(-c2cnc3c(c2)c(=O)c(C(=O)O)cn3CCC2CCN(C)CC2)cn1 [Example 2, 6-(6-(3-ethylureido)-4-(4-(trifluoromethyl)thiazol-2-yl)pyridin-3-yl)-1-(2-(1-methylpiperidin-4-yl)ethyl)-4-oxo-1,4-dihydro-1,8-naphthyridine-3-carboxylic acid]
inhibition at 1 µM [1]: 123%

CCNC(=O)Nc1cc(-c2nc(C(F)(F)F)cs2)c(-c2cnc3c(c2)c(=O)c(C(=O)O)cn3CC)cn1 [Example 8, 1-Ethyl-6-{6-[(ethylcarbamoyl)amino]-4-[4-(trifluoromethyl)-1,3-thiazol-2-yl]pyridin-3-yl}-4-oxo-1,4-dihydro-1,8-naphthyridine-3-carboxylic acid]
inhibition at 1 µM [1]: 98%

CCNC(=O)Nc1cc(-c2nc(C(F)(F)F)cs2)c(-c2cnc3c(c2)c(=O)c(C(=O)O)cn3C2CC2)cn1 [Example 9, 1-Cyclopropyl-6-{6-[(ethylcarbamoyl)amino]-4-[4-(trifluoromethyl)-1,3-thiazol-2-yl]pyridin-3-yl}-4-oxo-1,4-dihydro-1,8-naphthyridine-3-carboxylic acid]
inhibition at 1 µM [1]: 96%

CCNC(=O)Nc1cc(-c2nc(C(F)(F)F)cs2)c(-c2cnc3c(c2)c(=O)c(C(=O)O)cn3[C@H](CO)CC(C)C)cn1 [Example 11, 6-{6-[(ethylcarbamoyl)amino]-4-[4-(trifluoromethyl)-1,3-thiazol-2-yl]pyridin-3-yl}-1-[(2S)-1-hydroxy-4-methylpentan-2-yl]-4-oxo-1,4-dihydro-1,8-naphthyridine-3-carboxylic acid]
inhibition at 1 µM [1]: 104%

CCNC(=O)Nc1cc(-c2nc(C(F)(F)F)cs2)c(-c2cnc3c(c2)c(=O)c(C(=O)O)cn3[C@H](CO)C(C)(C)C)cn1 [Example 12, 6-{6-[(ethylcarbamoyl)amino]-4-[4-(trifluoromethyl)-1,3-thiazol-2-yl]pyridin-3-yl}-1-[(2S)-1-hydroxy-3,3-dimethylbutan-2-yl]-4-oxo-1,4-dihydro-1,8-naphthyridine-3-carboxylic acid]
inhibition at 1 µM [1]: 104%

CCNC(=O)Nc1cc(-c2nc(C(F)(F)F)cs2)c(-c2cnc3c(c2)c(=O)c(C(=O)O)cn3CCOP(=O)(O)O)cn1 [Example 14, 6-{6-[(ethylcarbamoyl)amino]-4-[4-(trifluoromethyl)-1,3-thiazol-2-yl]pyridin-3-yl}-4-oxo-1-[2-(phosphonooxy)ethyl]-1,4-dihydro-1,8-naphthyridine-3-carboxylic acid]
inhibition at 1 µM [1]: 103%

CCNC(=O)Nc1cc(-c2nc(C(F)(F)F)cs2)c(-c2cnc3c(c2)c(=O)c(C(=O)O)cn3CCN(C)C)cn1 [Example 16, 1-[2-(dimethylamino)ethyl]-6-{6-[(ethylcarbamoyl)amino]-4-[4-(trifluoromethyl)-1,3-thiazol-2-yl]pyridin-3-yl}-4-oxo-1,4-dihydro-1,8-naphthyridine-3-carboxylic acid]
inhibition at 1 µM [1]: 104%

CCNC(=O)Nc1cc(-c2nc(C(F)(F)F)cs2)c(-c2cnc3c(c2)c(=O)c(C(=O)OCCO)cn3CC)cn1 [Example 17, 2-hydroxyethyl 1-ethyl-6-{6-[(ethylcarbamoyl)amino]-4-[4-(trifluoromethyl)-1,3-thiazol-2-yl]pyridin-3-yl}-4-oxo-1,4-dihydro-1,8-naphthyridine-3-carboxylate]
inhibition at 1 µM [1]: 106%

CCNC(=O)Nc1cc(-c2nc(C(F)(F)F)cs2)c(-c2cnc3c(c2)c(=O)c(C(=O)OCCCO)cn3CC)cn1 [Example 18, 3-hydroxypropyl 1-ethyl-6-{6-[(ethylcarbamoyl)amino]-4-[4-(trifluoromethyl)-1,3-thiazol-2-yl]pyridin-3-yl}-4-oxo-1,4-dihydro-1,8-naphthyridine-3-carboxylate]
inhibition at 1 µM [1]: 108%

CCNC(=O)Nc1cc(-c2nc(C(F)(F)F)cs2)c(-c2cnc3c(c2)c(=O)c(C(=O)OCCOP(=O)(O)O)cn3CC)cn1 [Example 20, 2-(phosphonooxy)ethyl 1-ethyl-6-{6-[(ethylcarbamoyl)amino]-4-[4-(trifluoromethyl)-1,3-thiazol-2-yl]pyridin-3-yl}-4-oxo-1,4-dihydro-1,8-naphthyridine-3-carboxylate]
inhibition at 1 µM: 104%

CCNC(=O)Nc1cc(-c2nc(C(F)(F)F)cs2)c(-c2cnc3c(c2)c(=O)c(C(=O)OCCCOP(=O)(O)O)cn3CC)cn1 [Example 22, 3-(Phosphonooxy)propyl 1-ethyl-6-{6-[(ethylcarbamoyl)amino]-4-[4-(trifluoromethyl)-1,3-thiazol-2-yl]pyridin-3-yl}-4-oxo-1,4-dihydro-1,8-naphthyridine-3-carboxylate]
inhibition at 1 µM [1]: 104%

CCNC(=O)Nc1cc(-c2nc(C(F)(F)F)cs2)c(-c2cnc3c(c2)c(=O)c(C(=O)O)cn3[C@H](COP(=O)(O)O)CC(C)C)cn1 [Example 25, 6-{6-[(ethylcarbamoyl)amino]-4-[4-(trifluoromethyl)-1,3-thiazol-2-yl]pyridin-3-yl}-1-[(2S)-4-methyl-1-(phosphonooxy)pentan-2-yl]-4-oxo-1,4-dihydro-1,8-naphthyridine-3-carboxylic acid]
inhibition at 1 µM [1]: 108%

CCNC(=O)Nc1cc(-c2nc(C(F)(F)F)cs2)c(-c2cnc3c(c2)c(=O)c(C(=O)O)cn3[C@@H]2CCCN(CCN3CCOCC3)C2)cn1 [Example 29]
inhibition at 1 µM: 105%

CCNC(=O)Nc1cc(-c2nc(C(F)(F)F)cs2)c(-c2cnc3c(c2)c(=O)c(C(=O)O)cn3[C@H]2CCCN(CCN3CCOCC3)C2)cn1 [Example 31]
inhibition at 1 µM [1]: 104%

CCNC(=O)Nc1cc(-c2nc(C(F)(F)F)cs2)c(-c2cnc3c(c2)c(=O)c(C(=O)O)cn3C[C@@H]2CCCN2CC)cn1 [Example 32]
inhibition at 1 µM [1]: 103%

CCNC(=O)Nc1cc(-c2nc(C(F)(F)F)cs2)c(-c2cnc3c(c2)c(=O)c(C(=O)O)cn3C[C@H]2CCCN2CC)cn1 [Example 33]
inhibition at 1 µM [1]: 102%

CCNC(=O)Nc1cc(-c2nc(CC(C)C)cs2)c(-c2cnc3c(c2)c(=O)c(C(=O)O)cn3[C@H]2CCCN(CCN(CC)CC)C2)cn1 [Example 34, (S)-1-(1-(2-(diethylamino)ethyl)piperidin-3-yl)-6-(6-(3-ethylureido)-4-(4-isobutylthiazol-2-yl)pyridin-3-yl)-4-oxo-1,4-dihydro-1,8-naphthyridine-3-carboxylic acid]
inhibition at 1 µM [1]: 103%

CCNC(=O)Nc1cc(-c2nc(-c3ccccc3)cs2)c(-c2cnc3c(c2)c(=O)c(C(=O)O)cn3[C@H]2CCCN(CCN(CC)CC)C2)cn1 [Example 35]
inhibition at 1 µM [1]: 102%

CCNC(=O)Nc1cc(-c2nc(C(F)(F)F)cs2)c(-c2cc3c(=O)c(C(=O)O)cn(C[C@@H]4CCCN4CC)c3nc2NCCN(C)C)cn1 [Example 36, 7-(2-(dimethylamino)ethylamino)-1-(((S)-1-ethylpyrrolidin-2-yl)methyl)-6-(6-(3-ethylureido)-4-(4-(trifluoromethyl)thiazol-2-yl)pyridin-3-yl)-4-oxo-1,4-dihydro-1,8-naphthyridine-3-carboxylic acid]
inhibition at 1 µM [1]: 100%

CCNC(=O)Nc1cc(-c2nc(C(F)(F)F)cs2)c(-c2cc3c(=O)c(C(=O)O)cn(CC)c3nc2NCCN(C)C)cn1 [Example 37, 7-(2-(dimethylamino)ethylamino)-1-ethyl-6-(6-(3-ethylureido)-4-(4-(trifluoromethyl)thiazol-2-yl)pyridin-3-yl)-4-oxo-1,4-dihydro-1,8-naphthyridine-3-carboxylic acid]
inhibition at 1 µM [1]: 109%

CCNC(=O)Nc1cc(-c2nc(C(F)(F)F)cs2)c(-c2cc3c(=O)c(C(=O)O)cn(CC)c3nc2N2CCN(C)CC2)cn1 [Example 38, 1-ethyl-6-(6-(3-ethylureido)-4-(4-(trifluoromethyl)thiazol-2-yl)pyridin-3-yl)-7-(4-methylpiperazin-1-yl)-4-oxo-1,4-dihydro-1,8-naphthyridine-3-carboxylic acid]
inhibition at 1 µM [1]: 101%

CCNC(=O)Nc1cc(-c2nc(C(F)(F)F)cs2)c(-c2cc3c(=O)c(C(=O)O)cn(C4CCCCC4)c3cn2)cn1 [Example 39, 1-cyclohexyl-6-(6-(3-ethylureido)-4-(4-(trifluoromethyl)thiazol-2-yl)pyridin-3-yl)-4-oxo-1,4-dihydro-1,7-naphthyridine-3-carboxylic acid]
inhibition at 1 µM [1]: 102%

CCNC(=O)Nc1cc(-c2nc(C(F)(F)F)cs2)c(-c2cc3c(=O)c(C(=O)O)cn(CCC(C)(C)C)c3cn2)cn1 [Example 40]
inhibition at 1 µM [1]: 103%

CCNC(=O)Nc1cc(-c2nc(C(F)(F)F)cs2)c(-c2cc3c(=O)c(C(=O)O)cn(C[C@H]4CCCN4CC)c3cn2)cn1 [Example 41]
inhibition at 1 µM [1]: 102%

CCNC(=O)Nc1cc(-c2nc(C(F)(F)F)cs2)c(-c2cc3c(=O)c(C(=O)O)cn(C[C@@H]4CCCN4CC)c3cn2)cn1 [Example 42]
inhibition at 1 µM [1]: 103%

CCNC(=O)Nc1cc(-c2nc(C(F)(F)F)cs2)c(-c2cc3c(=O)c(C(=O)O)cn(CC(C)N4CCOCC4)c3cn2)cn1 (stereo not shown) [Example 43]
inhibition at 1 µM [1]: 94%

CCNC(=O)Nc1cc(-c2nc(C(F)(F)F)cs2)c(-c2cc3c(=O)c(C(=O)O)cn(C(COC)COC)c3cn2)cn1 [Example 44]
inhibition at 1 µM [1]: 102%
